Measurements reported in patent US7229987B2, “Multicyclic compounds for use as melanin concentrating hormone antagonists in the treatment of obesity and diabetes” (Eli Lilly and Company, priority 2002, dated 2007).
Where a name gives a salt, the structure may show the parent alone.

SMILES	melting point
CN(C)CCOc1ccc(-c2nnc(CSCCOc3ccccc3)o2)cc1 [Example 66, dimethyl-(2-{4-[5-(2-phenoxy-ethylsulfanylmethyl)-[1,3,4]oxadiazol-2-yl]-phenoxy}-ethyl)-amine]	62 to 64 °C
c1ccc(OCCSCc2nnc(-c3ccc(OCCN4CCCC4)cc3)o2)cc1 [Example 76, 2-(2-phenoxy-ethylsulfanylmethyl)-5-[4-(2-pyrrolidin-1-yl-ethoxy)-phenyl]-[1,3,4]oxadiazole]	65 °C
CN(C)CCCOc1ccc(-c2nnc(CSCCOc3ccccc3)n2-c2ccccc2)cc1.O=C(O)C(=O)O [Example 247, Dimethyl-(3-{4-[5-(2-phenoxy-ethylsulfanylmethyl)-4-phenyl-4H-[1,2,4]triazol-3-yl]-phenoxy}-propyl)-amine, oxalic acid salt]	120 to 123 °C
COCCSCc1nnc(-c2ccc(OCCCN(C)C)cc2)o1 (as salt: maleate) [Example 281, (3-{4-[5-(2-methoxy-ethylsulfanylmethyl)-[1,3,4]oxadiazol-2-yl]-phenoxy}-propyl)-dimethyl-amine]	97.5 to 99 °C
CN(C)CCCOc1ccc(-c2nnc(Cc3ccc(Oc4ccccc4)cc3)o2)cc1.O=C(O)C(=O)O [Example 269, Dimethyl-(3-{4-[5-(4-phenoxy-benzyl)-[1,3,4]oxadiazol-2-yl]-phenoxy}-propyl)-amine, oxalic acid salt]	156 to 158 °C
CN(C)CCCOc1ccc(-c2nnc(CSCCOc3ccccc3)o2)nc1 [Example 289, dimethyl-(3-{6-[5-(2-phenoxy-ethylsulfanylmethyl)-[1,3,4]oxadiazol-2-yl]-pyridin-3-yloxy}-propyl)-amine]	47 to 49 °C
Nc1ccc(-c2nnc(CSCCOc3ccccc3)o2)cc1 [Example 116, 4-[5-(2-phenoxy-ethylsulfanylmethyl)-[1,3,4]oxadiazol-2-yl]-phenylamine]	126 to 130 °C
CN(C)CCCNC(=O)c1cccc(-c2nnc(CSCCOc3ccccc3)o2)c1 [Example 62, N-(3-dimethylamino-propyl)-3-[5-(2-phenoxy-ethylsulfanylmethyl)-[1,3,4]oxadiazol-2-yl]-benzamide]	88 to 90 °C
CN1CCCC(COc2ccc(-c3nnc(CSCCOc4ccccc4)o3)cc2)C1.O=C(O)/C=C\C(=O)O (centres unmarked) [Example 290, 1-methyl-3-{4-[5-(2-phenoxy-ethylsulfanylmethyl)-[1,3,4]oxadiazol-2-yl]-phenoxymethyl}-piperidine; maleic acid salt]	115 to 116 °C
c1ccc(OCCSCc2nnc(-c3ccc(OCCCCN4CCCCCC4)cc3)o2)cc1 [Example 89, 1-(4-{4-[5-(2-phenoxy-ethylsulfanylmethyl)-[1,3,4]oxadiazol-2-yl]-phenoxy}-butyl)-azepane]	35 to 38 °C
O=C(NCCN1CCCCC1)Nc1ccc(-c2nnc(CSCCOc3ccccc3)o2)cc1 [Example 107, 1-{4-[5-(2-phenoxy-ethylsulfanylmethyl)-[1,3,4]oxadiazol-2-yl]-3-phenyl}-3-(2-piperidin-1-yl-ethyl)-urea]	126 to 128 °C
CN(C)CCCOc1ccc(-c2nnc(CSCCOC(C)(C)C)o2)cc1 [Example 280, (3-{4-[5-(2-tert-butoxy-ethylsulfanylmethyl)-[1,3,4]oxadiazol-2-yl]-phenoxy}-propyl)-dimethyl-amine]	84.5 to 85.5 °C
NCCCOc1ccc(-c2nnc(CSCCOc3ccccc3)o2)cc1 [Example 84, 3-{4-[5-(2-phenoxy-ethylsulfanylmethyl)-[1,3,4]oxadiazol-2-yl]-phenoxy}-propylamine]	30 to 35 °C

Next, values leading:

melting point	SMILES
77.5 to 78 °C	COc1ccc(OCCSCc2nnc(-c3ccc(OCCCN(C)C)cc3)o2)cc1 [Example 277, [3-(4-{5-[2-(4-methoxy-phenoxy)-ethylsulfanylmethyl]-[1,3,4]oxadiazol-2-yl}-phenoxy)-propyl]-dimethyl-amine]
35 to 38 °C	c1ccc(OCCSCc2ncc(-c3ccc(OCCN4CCCCCC4)cc3)o2)cc1 [Example 265, 1-(2-{4-[2-(2-phenoxy-ethylsulfanylmethyl)-oxazol-5-yl]-phenoxy}-ethyl)-azepane]
40 to 44 °C	CNCCCOc1ccc(-c2nnc(CSCCOc3ccccc3)o2)cc1 [Example 77, methyl-(3-{4-[5-(2-phenoxy-ethylsulfanylmethyl)-[1,3,4]oxadiazol-2-yl]-phenoxy}-propyl)-amine]
102 to 104 °C	O=C(NCCN1CCCCC1)Nc1ccc(-c2cnc(COCc3cc4ccccc4o3)o2)cc1 [Example 256, 1-{4-[2-(benzofuran-2-ylmethoxymethyl)-oxazol-5-yl]-phenyl}-3-(2-piperidin-1-yl-ethyl)-urea]
50 °C	c1ccc(OCCSCc2nnc(-c3ccc(OCCCN4CCCCCC4)cc3)o2)cc1 [Example 83, 1-(3-{4-[5-(2-phenoxy-ethylsulfanylmethyl)-[1,3,4]oxadiazol-2-yl]-phenoxy}-propyl)-azepane]
30 to 33 °C	CC(C)N(CCCOc1ccc(-c2nnc(CSCCOc3ccccc3)o2)cc1)C(C)C [Example 261, diisopropyl-(3-{4-[5-(2-phenoxy-ethylsulfanylmethyl)-[1,3,4]oxadiazol-2-yl]-phenoxy}-propyl)-amine]
184 to 185 °C	O=C(Nc1ccc(-c2nnc(CSCCOc3ccccc3)o2)cc1)N1CCCC1 [Example 103, pyrrolidine-1-carboxylic acid {4-[5-(2-phenoxy-ethylsulfanylmethyl)-[1,3,4]oxadiazol-2-yl]-phenyl}-amide]
111 to 115 °C	O=C(NCCN1CCCC1)Nc1ccc(-c2nnc(CSCCOc3ccccc3)o2)cc1.O=C(O)C(=O)O [Example 106, 1-{4-[5-(2-phenoxy-ethylsulfanylmethyl)-[1,3,4]oxadiazol-2-yl]-phenyl}-3-(2-pyrrolidin-1-yl-ethyl)-urea oxalate]
114 to 116 °C	COc1cc(-c2nnc(CSCCOc3ccccc3)o2)ccc1OCCCN(C)C.O=C(O)/C=C\C(=O)O [Example 284, (3-{2-methoxy-4-[5-(2-phenoxy-ethylsulfanylmethyl)-[1,3,4]oxadiazol-2-yl]-phenoxy}-propyl)-dimethyl-amine; maleic acid salt]
> 220 °C	NC(=O)Nc1ccc(-c2nnc(CSCCOc3ccccc3)o2)cc1 [Example 101, {4-[5-(2-phenoxy-ethylsulfanylmethyl)-[1,3,4]oxadiazol-2-yl]-phenyl}-urea]
105 to 107 °C	CN(C)CCNC(=O)Nc1ccc(-c2cnc(CSCCOc3ccccc3)o2)cc1.O=C(O)/C=C\C(=O)O [Example 250, 1-(2-Dimethylamino-ethyl)-3-{4-[2-(2-phenoxy-ethylsulfanylmethyl)-oxazol-5-yl]-phenyl}-urea maleate]
94 to 96 °C	CN(C)CCCNc1ccc(-c2nnc(CSCCOc3ccccc3)o2)cn1 [Example 259, N,N-Dimethyl-N′-{5-[5-(2-phenoxy-ethylsulfanylmethyl)-[1,3,4]oxadiazol-2-yl]-pyridin-2-yl}-propane-1,3-diamine]
64 to 67 °C	c1ccc(OCCSCc2nnc(-c3ccc(OCCCCN4CCOCC4)cc3)o2)cc1 [Example 92, 4-(4-{4-[5-(2-phenoxy-ethylsulfanylmethyl)-[1,3,4]oxadiazol-2-yl]-phenoxy}-butyl)-morpholine]
